# Data taken from patent US20080153882A1, “Pharmaceutical Composition Comprising Ppar Regulator” (priority 2005, published 2008).
# Tested on: rat adjuvant arthritis model
# Assay: Anti-arthritic action in rat adjuvant arthritis model (footpad volume increase suppression)
# Type: in vivo
# Conditions: female Lewis rats, oral once a day, Compound No. 1 0.1 mg/kg, Formula (II) 10.0 mg/kg; for Footpad volume increase suppression ratio (%) After 11 days: right hind leg volume on day 11 after start of administration; for Footpad volume increase suppression ratio (%) After 18 days: right hind leg volume on day 18 after start of administration
# Experimental: A rat adjuvant arthritis model developing arthritis that is similar to human rheumatoid arthritis was used, and effect of the pharmaceutical composition according to the present invention with respect to the arthritis was evaluated by using footpad volume increase suppression rate as an indicator. Eight-week old female Lewis rats were used in the experiment.
# Heat killed Mycobacterium butyricum was ground in an agate mortar, then suspended in dry heat sterilized liquid paraffin so as to have a concentration of 2 mg/ml, and treated with sonication to prepare an adjuvant.
# The test compound was suspended or dissolved in a 0.5% tragacanth solution. As the test compound, the compound of Compound No. 1 described in Table 1 was used as the amino alcohol derivative, and the compound of the formula (II) was used as the PPAR regulator.
# 0.05 ml of the adjuvant prepared in (1) was injected subcutaneously into the footpad of right hind leg of rats, with respect to a control group and a test compound administration group. Here, 5 rats were used for each group. In addition, a normal control group was provided as a group without injection of the adjuvant.
# The test compound prepared in (2) was orally administrated once a day in the amount of 5 ml/kg, […]. The control group was administered with only the 0.5% tragacanth solution in a similar manner.
# After the start of administration, on day 11 and day 18, the volume of the right hind leg was measured by a leg volume measuring device, and the mean value of the swelling volume was calculated for each group.
# The footpad volume increase suppression ratio (%) was calculated by the following equation, and evaluated.
# Footpad volume increase suppression ratio (%)=(1-([footpad volume of test compound administration group]-[footpad volume of normal control group])/[footpad volume of control group]−[footpad volume of normal control group]))×100
Structure (SMILES),Footpad volume increase suppression ratio (%) After 11 days [%],Footpad volume increase suppression ratio (%) After 18 days [%]
Cn1c(CC[C@@](C)(N)CO)ccc1C(=O)CCCCc1ccccc1 [Compound No. 1],43.0,44.8
"COc1ccc2nc(COc3ccc(CC4SC(=O)NC4=O)cc3)n(C)c2c1.Cl (stereo not shown) [Formula (II), 5-[4-(6-methoxy-1-methyl-1-H-benzimidazol-2-ylmethoxy)benzyl]thiazoline-2,4-dione hydrochloride]",24.7,30.1
